From patent US8426447B2, “Spiro-tricyclic ring compounds as beta-secretase modulators and methods of use” (Amgen Inc., priority 2008, dated 2013)

Experiments:
[1] = target: T1, BACE1 (Homo sapiens, UniProt P56817); test: In Vitro Enzymatic BACE FRET (Fluorescence Resonance Energy Transfer) Assay; type: biochemical
Procedure: In Vitro Enzymatic BACE FRET (Fluorescence Resonance Energy Transfer) Assay (Enzyme Assay Data in the Example Tables I, II, III & IV) The assay buffer used in this screen is 0.05 M acetate, pH 4.2, 10% DMSO final, 100 uM genapol (which is a nonionic detergent, below its Critical Micelle Concentration). […] This assay is effectively started by the addition of FRET substrate (50 nM) and the combination is incubated for one hour. The FRET assay is terminated with by addition of Tris buffer, which raises the pH to neutrality, and the fluorescence is determined. The FRET substrate is a peptide with commercially available fluorophore and quencher, on opposite sides of the BACE cleavage site. […]

[2] = target: T1, BACE1; test: In Vitro BACE Cell-based Assay (HEK cell assay): Aβ40 in conditioned medium of cells stably expressing Amyloid Precursor Protein, sandwich ELISA
Procedure: In Vitro BACE Cell-based Assay
The cell-based assay measures inhibition or reduction of Aβ40 in conditioned medium of test compound treated cells expressing amyloid precursor protein.
Cells stably expressing Amyloid Precursor Protein (APP) were plated at a density of 40K cells/well in 96 well plates (Costar). The cells were cultivated for 24 hours at 37° C. and 5% CO2 in DMEM supplemented with 10% FBS. The test compounds were then added to cells in 10-point dose response concentrations with the starting concentration being either 100 μM or 10 μM. The compounds were diluted from stock solutions in DMSO and the final DMSO concentration of the test compounds on cells was 0.1%. After 24 h of incubation with the test compounds the supernatant conditioned media was collected and the Aβ 40 levels were determined using a sandwich ELISA. The IC50 of the compound was calculated from the percent of control or percent inhibition of Aβ 40 as a function of the concentration of the test compound.
The sandwich ELISA to detect Aβ 40 was performed in 96 well microtiter plates, which were pre-treated with goat anti-rabbit IgG (Pierce). The capture and detecting antibody pair that were used to detect Aβ 40 from cell supernatants were affinity purified pAb40 (Biosource) and biotinylated 6E10 (Signet Labs Inc.), respectively. The optimal concentration for the pAb40 antibody was 3 μg/ml in Superblock/TBS (Pierce) that was supplemented with 0.05% Tween 20 (Sigma).
Cellular supernatants were incubated with the capture antibody for 3 h at 4° C., followed by 3 wash steps in TBS-tween (0.05%). The detecting antibody incubation was for 2 h at 4° C., again followed by the wash steps as described previously. The final readout of the ELISA is Time-Resolved Fluorescence (counts per minute) using Delfia reagents Streptavidin-Europium and Enhancement solutions (Perkin Elmer) and the Victor 2 multilabel counter (Perkin Elmer).

[3] = Table III, IC50's in uM ranges, read-out: BACE1 FRET assay
[4] = Table III, IC50's in uM ranges, read-out: HEK cell assay
[5] = HEK cells, read-out: HEK cell assay
[6] = in vitro BACE FRET enzyme assay, IC50 class symbols, read-out: BACE1 FRET assay
[7] = HEK cell-based assay, Aβ40 in conditioned medium, IC50 class symbols, read-out: HEK cell assay
[8] = Table IV, class symbols, read-out: BACE1 FRET assay
[9] = Table IV, class symbols, read-out: HEK cell assay
[10] = Table II, read-out: BACE1 FRET assay

T1 sequence (P56817 46-501, species assumed): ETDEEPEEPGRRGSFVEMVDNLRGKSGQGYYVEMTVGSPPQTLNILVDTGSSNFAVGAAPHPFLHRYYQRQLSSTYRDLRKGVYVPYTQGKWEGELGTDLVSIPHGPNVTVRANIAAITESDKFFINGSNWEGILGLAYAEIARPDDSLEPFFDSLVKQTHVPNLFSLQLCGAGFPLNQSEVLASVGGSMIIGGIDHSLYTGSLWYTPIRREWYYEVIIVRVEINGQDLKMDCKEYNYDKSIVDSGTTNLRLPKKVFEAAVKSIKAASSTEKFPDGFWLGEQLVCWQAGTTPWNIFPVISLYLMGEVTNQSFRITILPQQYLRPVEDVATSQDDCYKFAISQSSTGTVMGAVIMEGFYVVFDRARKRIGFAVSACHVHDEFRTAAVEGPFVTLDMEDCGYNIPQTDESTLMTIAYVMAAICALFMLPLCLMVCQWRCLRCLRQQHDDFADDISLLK

Cc1noc(C)c1-c1ccc2c(c1)[C@@]1(COC(N)=N1)c1cc(OCC(C)(C)C)ccc1O2 [compound 976]
IC50 ([1]; read-out: BACE1 FRET assay): 0.1 to 1 µM
IC50 ([2]; read-out: HEK cell assay): > 5 µM

COC(C)(C)C#Cc1ccc2c(c1)[C@]1(COC(N)=N1)c1cc(-c3cccnc3)cnc1O2 [208b]
IC50 [1, 3]: < 0.1 µM
IC50 [2, 4]: < 0.1 µM

CC1(C)CC(c2cc3c(cn2)Oc2ccc(-c4cccnc4)cc2[C@@]32COC(N)=N2)=CCO1 [compound 436]
IC50 ([1]; read-out: BACE1 FRET assay): < 0.1 µM
IC50 [2, 5]: < 0.1 µM

CC(C)(C)COc1ccc2c(c1)[C@@]1(COC(N)=N1)c1cc(-c3ccnc(F)c3)cnc1O2 [compound 752]
IC50 ([1]; read-out: BACE1 FRET assay): < 0.1 µM
IC50 ([2]; read-out: HEK cell assay): < 0.1 µM

CC1(C)CC(c2ccc3c(c2)[C@]2(COC(N)=N2)c2cc(-c4cncnc4)ccc2O3)=CCO1 [compound 688]
IC50 ([1]; read-out: BACE1 FRET assay): < 0.1 µM
IC50 ([2]; read-out: HEK cell assay): < 0.1 µM

COCC#Cc1ccc2c(c1)[C@@]1(COC(N)=N1)c1cc(-c3cncnc3)ccc1O2 [156b]
IC50 [1, 3]: 0.1 to 1 µM
IC50 [2, 4]: 0.1 to 1 µM

NC1=N[C@]2(CO1)c1cc(OCC(C(F)(F)F)C(F)(F)F)ccc1Oc1ccc(-c3cncnc3)cc12 [compound 163]
IC50 [1, 3]: 0.1 to 1 µM
IC50 [2, 4]: 0.1 to 1 µM

Cn1cncc1-c1ccc2c(c1)[C@]1(COC(N)=N1)c1cc(OCC(C)(C)C)ccc1O2 [compound 187]
IC50 [1, 3]: 1 to 5 µM
IC50 [2, 4]: 1 to 5 µM

NC1=N[C@@]2(CO1)c1cc(-c3cccnc3)ccc1Oc1ncc(-c3cccnc3)cc12 [compound 203]
IC50 [1, 3]: 0.1 to 1 µM
IC50 [2, 4]: 1 to 5 µM

Cc1cc(-c2ccc3c(c2)[C@]2(COC(N)=N2)c2cc(-c4cccnc4)ccc2O3)on1 [compound 693]
IC50 ([1]; read-out: BACE1 FRET assay): < 0.1 µM
IC50 ([2]; read-out: HEK cell assay): < 0.1 µM

CC(C)(C)COc1ccc2c(c1)[C@@]1(COC(N)=N1)c1cc(C#N)ccc1O2 [compound 990]
IC50 ([1]; read-out: BACE1 FRET assay): 0.1 to 1 µM
IC50 ([2]; read-out: HEK cell assay): 1 to 5 µM

NC1=N[C@@]2(CO1)c1cc(-c3cccnc3)ccc1Oc1c(F)cc(OCC(=O)C3CC3)cc12 [compound 387]
IC50 [1, 6]: < 0.1 µM
IC50 [2, 7]: < 0.1 µM

CC(C)Oc1ccc(-c2cc3c(cn2)Oc2ccc(-c4cccnc4)cc2[C@@]32COC(N)=N2)cc1 [compound 851]
IC50 [1, 8]: < 0.1 µM
IC50 [2, 9]: 0.1 to 1 µM

Cn1cc(-c2cc3c(cn2)Oc2ccc(-c4cccnc4F)cc2[C@@]32COC(N)=N2)cn1 [compound 333]
IC50 [1, 6]: < 0.1 µM
IC50 [2, 7]: < 0.1 µM

COc1ccc(-c2ccc3c(c2)[C@]2(COC(N)=N2)c2cc(-c4cncnc4)ccc2O3)cn1 [compound 829]
IC50 [1, 8]: < 0.1 µM
IC50 [2, 9]: < 0.1 µM

NC1=N[C@@]2(CO1)c1cc(-c3cccc(Cl)c3)ccc1Oc1cnc(C3=CCOCC3)cc12 [compound 427, (5S)-7-(3-chlorophenyl)-3-(3,6-dihydro-2H-pyran-4-yl)spiro[chromeno[2,3-c]pyridine-5,4′-[1,3]oxazol]-2′-amine]
IC50 ([1]; read-out: BACE1 FRET assay): < 0.1 µM
IC50 [2, 5]: < 0.1 µM

COC(=O)/C=C/c1ccc2c(c1)[C@@]1(COC(N)=N1)c1cc(-c3cncnc3)ccc1O2 [compound 946]
IC50 ([1]; read-out: BACE1 FRET assay): 0.1 to 1 µM
IC50 ([2]; read-out: HEK cell assay): 0.1 to 1 µM

COc1cc2c(cc1F)Oc1ccc(-c3cncnc3)cc1[C@@]21COC(N)=N1 [154b]
IC50 [1, 3]: < 0.1 µM
IC50 [2, 4]: 0.1 to 1 µM

CC(C)(C)COc1ccc2c(c1)[C@]1(COC(N)=N1)c1cc(-c3ncccn3)ccc1O2 [compound 885]
IC50 [1, 8]: 0.1 to 1 µM
IC50 [2, 9]: 1 to 5 µM

CC(C)(F)COc1ccc2c(c1)[C@]1(COC=N1)c1cc(Br)c(N)nc1O2 [compound 171]
IC50 [1, 3]: 0.1 to 1 µM
IC50 [2, 4]: 1 to 5 µM

NC1=N[C@@]2(CO1)c1cc(-c3cncnc3)ccc1Oc1c(F)cccc12 [compound 553]
IC50 [1, 8]: < 0.1 µM
IC50 [2, 9]: 0.1 to 1 µM

COC(C)(C)C#Cc1cnc2c(c1)[C@@]1(COC(N)=N1)c1cc(-c3ccc(F)nc3)ccc1O2 [compound 723]
IC50 ([1]; read-out: BACE1 FRET assay): 0.1 to 1 µM
IC50 ([2]; read-out: HEK cell assay): 1 to 5 µM

NC1=N[C@@]2(CO1)c1ccccc1Oc1ccc(C(=O)N3CCCCC3)cc12 [compound 639]
IC50 [1, 8]: > 5 µM
IC50 [2, 9]: > 5 µM

CC1(C)CC(c2cc3c(cn2)Oc2ccc(-c4cccnc4F)cc2[C@@]32COC(N)=N2)=CCO1 [compound 434]
IC50 ([1]; BACE1 FRET assay (uM)): < 0.1 µM
IC50 ([2]; HEK cell assay (uM), HEK cells): < 0.1 µM

NC1=N[C@@]2(CO1)c1cc(-c3cc(Cl)ccc3F)ccc1Oc1cnc(C3=CCOCC3)cc12 [compound 424]
IC50 ([1]; read-out: BACE1 FRET assay): < 0.1 µM
IC50 [2, 5]: < 0.1 µM

NC1=N[C@@]2(CO1)c1cc(-c3cccnc3F)ccc1Oc1ncc(-c3ccncc3)cc12 [compound 403]
IC50 [1, 6]: < 0.1 µM
IC50 [2, 7]: < 0.1 µM

CC(C)(C)COc1cc2c(cc1F)[C@]1(COC(N)=N1)c1cc(-c3cncnc3)ccc1O2 [compound 999]
IC50 ([1]; read-out: BACE1 FRET assay): 1 to 5 µM
IC50 ([2]; read-out: HEK cell assay): > 5 µM

CC(C)(C)OC(=O)N1CC=C(c2ccc3c(c2)[C@]2(COC(N)=N2)c2cc(-c4cncnc4)ccc2O3)CC1 [compound 968]
IC50 ([1]; read-out: BACE1 FRET assay): < 0.1 µM
IC50 ([2]; read-out: HEK cell assay): 0.1 to 1 µM

CC(=O)/C=C/c1ccc2c(c1)[C@]1(COC(N)=N1)c1cc(-c3cncnc3)ccc1O2 [compound 857]
IC50 [1, 8]: < 0.1 µM
IC50 [2, 9]: 0.1 to 1 µM

CC(=O)c1cccc(-c2ccc3c(c2)[C@]2(COC(N)=N2)c2cc(-c4cncnc4)ccc2O3)c1 [compound 889]
IC50 [1, 8]: < 0.1 µM
IC50 [2, 9]: < 0.1 µM

COC(C)(C)COc1ccc2c(c1)[C@@]1(COC(N)=N1)c1cc(-c3ccccc3)cnc1O2 [compound 818]
IC50 [1, 8]: < 0.1 µM
IC50 [2, 9]: < 0.1 µM

CC(C)(C)COc1ccc2c(c1)[C@]1(CSC(N)=N1)c1cc(-c3cncnc3)ccc1O2 [compound 720]
IC50 ([1]; read-out: BACE1 FRET assay): < 0.1 µM
IC50 ([2]; read-out: HEK cell assay): < 0.1 µM

COc1ccc2c(c1)[C@@]1(COC(N)=N1)c1cc(C3=CCOCC3)cc(F)c1O2 [compound 364]
IC50 [1, 6]: 0.1 to 1 µM
IC50 [2, 7]: 1 to 5 µM

COc1cncc(-c2ccc3c(c2)[C@@]2(COC(N)=N2)c2cc(OCC(C)(C)C)cnc2O3)c1 [compound 383]
IC50 [1, 6]: < 0.1 µM
IC50 [2, 7]: < 0.1 µM

CC(C)(C)COc1ccc2c(c1)[C@]1(COC(N)=N1)c1cc(C3=CC4CCC3C4)ccc1O2 (stereo partly shown) [compound 730]
IC50 ([1]; read-out: BACE1 FRET assay): < 0.1 µM
IC50 ([2]; read-out: HEK cell assay): 1 to 5 µM

Cn1cc(-c2ccc3c(c2)[C@]2(COC(N)=N2)c2cc(-c4ccc(F)nc4)ccc2O3)cn1 [compound 631]
IC50 [1, 8]: < 0.1 µM
IC50 [2, 9]: < 0.1 µM

CC(C)(C#N)COc1ccc2c(c1)[C@]1(COC(N)=N1)c1cc(-c3cccnc3)cnc1O2 [compound 168]
IC50 [1, 3]: < 0.1 µM
IC50 [2, 4]: < 0.1 µM

CC1(C)CC(c2cc3c(cc2F)Oc2ccc(-c4cncnc4)cc2[C@@]32COC(N)=N2)=CC(=O)O1 [compound 524]
IC50 ([1]; read-out: BACE1 FRET assay): < 0.1 µM
IC50 [2, 5]: < 0.1 µM

NC1=N[C@]2(CO1)c1cc(C3=CCOCC3)ccc1Oc1ccc(C3CC3)cc12 [compound 756]
IC50 ([1]; read-out: BACE1 FRET assay): 0.1 to 1 µM
IC50 ([2]; read-out: HEK cell assay): 1 to 5 µM

Cn1cc(-c2cc(F)c3c(c2)[C@]2(COC(N)=N2)c2cc(-c4cncnc4)ccc2O3)cn1 [compound 511]
IC50 ([1]; read-out: BACE1 FRET assay): < 0.1 µM
IC50 [2, 5]: < 0.1 µM

CC(C)(C#N)COc1cnc2c(c1)[C@]1(COC(N)=N1)c1cc(-c3ccccc3)ccc1O2 [compound 409]
IC50 [1, 6]: < 0.1 µM
IC50 [2, 7]: 0.1 to 1 µM

NC1=N[C@]2(CO1)c1cc(CC(=O)O)ccc1Oc1ccc(-c3cncnc3)cc12 [compound 751]
IC50 ([1]; read-out: BACE1 FRET assay): 0.1 to 1 µM
IC50 ([2]; read-out: HEK cell assay): > 5 µM

NC1=N[C@]2(CO1)c1cc(C#CC3CCCC3)ccc1Oc1ccc(-c3cncnc3)cc12 [Example 95, (4R)-2′-(cyclopentylethynyl)-7′-(5-pyrimidinyl)spiro[1,3-oxazole-4,9′-xanthen]-2-amine]
IC50 [1, 10]: < 0.1 µM

NC1=N[C@]2(CO1)c1cc(OCC3CCCO3)ccc1Oc1ccc(-c3cccnc3)cc12 (stereo partly drawn) [Example 99, (4S)-2′-(3-pyridinyl)-7′-(tetrahydro-2-furanylmethoxy)spiro[1,3-oxazole-4,9′-xanthen]-2-amine]
IC50 [1, 10]: < 0.1 µM

NC1=N[C@]2(CO1)c1cc(C#CC3CC3)ccc1Oc1ccc(-c3cncnc3)cc12 [Example 101, (4R)-2′-(cyclopropylethynyl)-7′-(5-pyrimidinyl)spiro[1,3-oxazole-4,9′-xanthen]-2-amine]
IC50 [1, 10]: < 0.1 µM

NC1=N[C@]2(CO1)c1cc(C(=O)CC3CCCC3)ccc1Oc1ccc(-c3cncnc3)cc12 [Example 102, 1-((4S)-2-amino-7′-(5-pyrimidinyl)spiro[1,3-oxazole-4,9′-xanthen]-2′-yl)-2-cyclopentylethanone]
IC50 [1, 10]: < 0.1 µM
